Measured values taken from patent US10829731B2, “Biocatalysts for conversion of thermochemical waste streams” (Alliance for Sustainable Energy, LLC, priority 2018, dated 2020).
Read-outs that look alike come from different tables or passages of the source.

Experiments:
P. putida KT2440 = assay: microbe, parasite or virus in culture; type: cell-based
Description: Toxicity of the TC wastewater streams and toxic compounds present in FPS were evaluated in microplate growth assays performed in a Bioscreen C MBR analyzer (Growth Curves US, Piscataway, N.J.). Pre-cultures of the strains were prepared by inoculating 25 mL M9 medium supplemented with 20 mM glucose in a 125 mL baffled flask to an OD600 of 0.05-0.1 and incubating shaking at 225 rpm, 30° C. At mid log phase (OD600 0.5-1.0), cells were harvested by centrifugation at 13,000 rpm, and the cell pellets were washed twice and resuspended in M9 medium without a carbon source. These resuspended cells were used to inoculate microplate wells containing 200 μL of M9 medium supplemented with 20 mM glucose and various concentrations of TC wastewater streams or their components to OD600 0.1. Microplates were then incubated at 30° C. with maximum shaking and growth was measured by reading the absorbance (OD420-580) every 30 minutes. Growth rates were calculated according to the growth curve equation.
The compounds present in the FPF stream were classified according to chemical functionality, aldehydes, ketones, phenolics, or acids, and the growth rate of P. putida was evaluated against each class of compounds.

[1] = tested on: GFP-expressing strain of P. putida KT2440; assay: GFP immunoblot of cell-free extract after GA or FPF treatment; type: cell-based, Pseudomonas putida; conditions: GA (2 mM) or FPF (0.05% (v/v))
Source text: Aldehydes, the key toxic component of the FPF stream, can confer molecular toxicity via protein damage. Indeed, GA, the major aldehyde present in FPF is a well-known post-translational protein-damaging agent. […] Cell-free extract from these conditions was immunoblotted to detect the presence of GFP. […] Furthermore, GFP inclusion bodies formed in cells treated with GA or FPF, which might be due to misfolding or cross-linking of the GFP protein. […] Thus, in an embodiment, overexpression of chaperones to rescue damaged or misfolded proteins was chosen as a strategy to enhance the tolerance of P. putida to FPF.
The fate of GFP in the LJ014 strain after treatment with FPF was then examined.

[2] = Pseudomonas putida, KT2440, effective concentration that decreases the growth rate by 50%, M9 medium with 20 mM glucose, 30° C., read-out: EC50
[3] = effective concentration that decreases the growth rate by 50%, M9 medium with 20 mM glucose, 30° C., read-out: EC50
[4] = Pseudomonas putida, KT2440, effective concentration that decreases the growth rate by 50%, M9 medium with 20 mM glucose, 30° C.

Structure (SMILES)	EC50 (P. putida KT2440; [2])	EC50 (P. putida KT2440; Pseudomonas putida, KT2440)	further results
Cc1ccc(C)c(O)c1 [2,5-Xylenol]	2.52 mM	–	–
O=C1C=CCO1 [2-Butenolide]	7.77 mM	–	–
CC1=CCOC1=O [2-Methyl-butenolide]	5.02 mM	–	–
CCC(=O)CO [2-Oxobutanol]	27.8 mM	–	–
O=Cc1ccoc1 [3-Furancarboxaldehyde]	13.9 mM	–	–
O=Cc1ccc(CO)o1 [5-HMF, 5-(Hydroxymethyl)furfural]	14.3 mM	–	–
Cc1ccc(C=O)o1 [5-methylfufaral]	–	–	EC50 (P. putida KT2440; [3]): 15 mM
CC=O [Acetaldehyde]	–	16.2 mM	–
CC(=O)O [Acetic acid]	64.1 mM	–	–
CC(=O)CO [Acetol]	–	–	EC50 (P. putida KT2440; [3]): 12.4 mM
CC(C)=O [Acetone]	–	39.3 mM	–
C=CC(=O)O [Acrylic acid]	–	11.7 mM	–
O=C1CCCC1 [Adipic ketone]	–	–	EC50 (P. putida KT2440; [3]): 9.8 mM
CCCC(=O)O [Butanoic acid]	35.2 mM	–	–
Oc1ccccc1O [Catechol]	–	42.4 mM	–
C/C=C/C=O [Crotonaldehyde]	–	17.4 mM	–
C=O [Formaldehyde]	–	–	EC50 (P. putida KT2440; [4]): ~2 mM; EC50 (P. putida KT2440; effective concentration that decreases the growth rate by 50%, M9 medium with 20 mM glucose, 30° C.): 2.07 mM
O=Cc1ccco1 [Furfural]	21 mM	–	–
O=CCO [Glycolaldehyde]	~2 mM	–	EC50 (P. putida KT2440; [3]): 2.14 mM; free-GFP level relative to the untreated controls [1]: 46.8%
O=CC=O [Glyoxal]	–	3.5 mM	–
COc1ccccc1O [Guaiacol]	13.3 mM	–	–
C=C(CC(=O)O)C(=O)O [Itaconic acid]	89.4 mM	–	–
CC(=O)CCO [Methylolacetone]	–	28.8 mM	–
Oc1ccccc1 [Phenol]	–	–	EC50 (P. putida KT2440; [4]): 9.24 mM
CCC(=O)O [Propionic acid]	22.4 mM	–	–
COc1cccc(OC)c1O [Syringol]	4.21 mM	–	–
COc1cc(C=O)ccc1O [Vanillin]	6.34 mM	–	–
Cc1cccc(O)c1 [m-Cresol]	–	3.46 mM	–
Cc1ccccc1O [o-Cresol]	–	3.12 mM	–
Cc1ccc(O)cc1 [p-Cresol]	2.25 mM	–	–
